These results are taken from patent publication US11191746B2, “Composition for inhibiting a growth of cancer stem cells comprising ciclesonide” (JEJU NATIONAL UNIVERSITY INDUSTRY-ACADEMIC COOPERATION …, priority 2016, dated 2021).

Holding throughout (assay type): cell-based, human
Test [1] relates to MDA-MB-231 cell-derived mammospheres. Kind of test: Mammosphere formation. The conditions noted are these: MDA-MB-231 mammospheres, 80 μM. As for the experimental part: (§1) Human breast cancer cells, MCF-7, were obtained from American Type Culture Collection (ATCC; Manassas, Va., USA). MCF-7 cells and MDA-MB-231 cells were cultured in Dulbecco's Modified Essential Medium (DMEM; Hyclone, Logan, Utah, USA) containing 10% fetal bovine serum (FBS; Hyclone), 100 U/ml of penicillin, and 100 μg/ml of streptomycin (Hyclone). The MCF-7 cells were maintained in a humidified incubator containing 5% CO2 at 37° C. The cells were plated in 10 cm culture dishes at a density of 1×10^6 cells. To establish primary mammospheres, single cell-suspended MCF-7 cells were inoculated into ultra-low attachment 6-well plates containing 2 ml of complete MammoCult™ medium (StemCell Technologies, Vancouver, BC, Canada) at a density of 3.5 to 4×10^4 cells/well. The complete MammoCult™ medium was supplemented with 4 μg/ml of heparin, 0.48 μg/ml of hydrocortisone, 100 U/ml of penicillin, and 100 μg/ml of streptomycin. The cells were incubated in a 5% CO2 incubator at 37° C. for 7 days.
(§2) On day 10 of culture, cell culture plates were placed on a scanner (Epson Perfection V700 PHOTO, Epson Korea, Co, Seoul, Korea) to obtain 8-bit gray scale images of mammospheres. The images were acquired using a NICE software program downloaded from ftp://ftp.nist.gov/pub/physics/mlclarke/NICE at a low resolution of 300 dpi. For counting, a desired number of rows and columns (e.g., 2×3 for a 6-well plate) were selected to generate ROIs and after selecting the elliptical setting of the NICE program, the individual ROIs were defined by adjusting the movement and size of the provided ROI shapes. The background signals of the images were negated using a threshold algorithm, and the selected images were automatically counted. To analyze the formation of mammospheres, mammosphere formation efficiency (MFE, %) was determined by the following equation: MFE (%)=the number of mammospheres per well/a total number of plated cells per well×100.

Test [2] deals with MCF-7 cell-derived mammospheres. Kind of test: Mammosphere formation. The conditions noted are these: MCF-7 mammospheres, 80 μM. As for the experimental part: as §1, §2
The test system of test [3] is A549 cell-derived tumorspheres. The experiment in a line: Tumorsphere formation. The conditions noted are these: A549 tumorspheres. As for the experimental part: Human lung cancer cells, A549, were cultured under the same culture conditions as those for the breast cancer cells of Example 2-1. To establish primary tumorspheres, single cell-suspended A549 cells were inoculated into ultra-low attachment 6-well plates containing 2 ml of Cancer Stem Premium medium (ProMab Biotechnologies Inc, Richmond, Calif., USA) at a density of 5×10^4 cells/well. The cells were incubated in a 5% CO2 incubator at 37° C. for 10 days.
Lung cancer tumorspheres were counted in the same manner as in Example 3-1, and for the analysis of tumorsphere formation, tumorsphere formation efficiency (TFE, %) was determined by the following equation: TFE (%)=number of tumorspheres per well/total number of plated cells per well×100.

In the case of `C[C@]12C=CC(=O)C=C1CC[C@@H]1[C@@H]2C(=O)C[C@@]2(C)[C@H]1CC[C@]2(O)C(=O)CO` [prednisone], the “growth of breast cancer stem cells” value in test [1] and in test [2] was “unable to inhibit” throughout. Further, in test [3] (80 μM), the “lung cancer stem cell inhibitory activity” value is listed as “did not exhibit a lung cancer stem cell inhibitory activity”.
As to isobutyryl ciclesonide, the “lung cancer stem cell inhibitory activity” value in test [3] (5 μM and 10 μM) is “exhibited a lung cancer stem cell inhibitory activity”.
